Common to all, as to assay: NCI tumour cell line growth inhibition, 48 h
Assay [1] deals with A498 renal.
Assay [2] has as its system HOP-62 NSCLC.
Assay [3] relates to HOP-92 NSCLC.
The subject of assay [4] is IGROV1 ovarian.
In assay [5] the test system is K-562 leukemia.
Assay [6] concerns MDA-MB-231 breast.
Assay [7] has as its system MDA-N.
Assay [8] relates to NCI-H460 lung.
The subject of assay [9] is NCI/ADR-RES ovarian.
In assay [10] the test system is OVCAR-3 ovarian.
Assay [11] relates to OVCAR-4 ovarian.
The test system of assay [12] is RPMI-8226 leukemia.
The test system of assay [13] is SF-539 CNS.
Assay [14] relates to SK-MEL-28 melanoma.
In assay [15] the test system is SK-MEL-5 melanoma.
In assay [16] the test system is SN12C renal.
The test system of assay [17] is SR leukemia.
Assay [18] relates to SW-620 colon.
Assay [19] deals with TK-10 renal.
The test system of assay [20] is NCI-H522 lung.

SMILES strings stand for the structures.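 Each compound was tested at five concentrations against cells in 96-well plates for 48 hours. TGI marks complete inhibition of growth.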 Where a SMILES comes first, the peptide text is derived from it. [ ]: non-standard residue; d: D form. pGlu = O=C1CC[CH](C(=O)O)N1

These results are taken from PubChem BioAssay (NCI).

Regarding `Cn1c(-c2ccc(C=O)o2)ccc1-c1ccc(C=O)o1`, the TGI in [1], in assay [2], in [3], in assay [4], in assay [5] and in assay [6] was over 100 µM in each case. Moreover, the TGI in assay [7] is over 100 µM; in assay [8] it was over 100 µM; in assay [9], over 100 µM; in assay [10] it was 81.2 µM; in [11], over 100 µM; in assay [12], over 100 µM. The TGI in assay [13] was 63.7 µM; in assay [14], over 100 µM; in [15] it was over 100 µM; in assay [16] it was over 100 µM; in [17], over 100 µM; in assay [18], over 100 µM. Besides, the TGI in assay [19] is over 100 µM.

`CC(NC(=O)C1CCC(=O)N1)C(=O)N1CCCC1C(N)=O` (stereo not drawn) ([pGlu]-Ala-Pro-NH2; configuration not given here): the TGI in assay [1], in assay [2], in [3], in [4], in assay [5] and in assay [6] was over 100 µM in each case. Moreover, the TGI in [7], in assay [8], in assay [20], in assay [9], in assay [10] and in assay [11] was over 100 µM in each case. The TGI in [12], in assay [14], in [15], in [16], in [17] and in [18] was over 100 µM in each case. Besides, the TGI in [19] was over 100 µM.

Consider `COc1cc(C2C=C(c3ccccc3)Oc3cc4c(cc32)OCO4)cc(OC)c1OC` (centres undefined), for which the TGI is over 100 µM in assay [1]; over 100 µM in assay [2]; over 100 µM in assay [3]; over 100 µM in assay [4]; over 100 µM in assay [5]; over 32.2 µM in assay [6]. For the same compound, the TGI in [7] was over 16.6 µM; in assay [8], over 100 µM; in [9], over 15.2 µM; in [10], over 100 µM; in [11], over 100 µM; in [12], over 100 µM. Moreover, the TGI in [13] was 3.63 µM; in [14] it was over 100 µM; in assay [15], over 47.8 µM; in assay [16], over 96.3 µM; in assay [17], over 100 µM; in assay [18] it was over 100 µM. Moreover, the TGI in [19] is over 100 µM.

For `C=C1C(C(=O)OC)[C@H]1C(=O)OC` (some centres undefined), the TGI in [1], in assay [2], in assay [3], in assay [4], in [6] and in assay [7] was over 100 µM throughout. In addition, the TGI in assay [8], in assay [20], in assay [9], in assay [10], in assay [11] and in assay [12] was over 100 µM each time. The TGI in assay [13], in assay [14], in assay [15], in [16], in [17] and in assay [18] was over 100 µM throughout. This compound displayed a TGI in assay [19] of over 100 µM.

Consider `COC(=O)CCc1ccc(CCC(=O)OC)cc1`, for which the TGI in assay [1], in assay [2], in assay [3], in assay [4], in assay [5] and in assay [6] was over 100 µM each time. For the same compound, the TGI in assay [7], in [8], in assay [20], in assay [9], in assay [10] and in assay [11] was over 100 µM each time. Further, the TGI in assay [12], in assay [13], in [14], in assay [15], in [17] and in assay [18] was over 100 µM each time. Also, the TGI in assay [19] was over 100 µM.

As for `COC(=O)c1cc2c(c(C(=O)OC)c1)CCC2`, the TGI in [1], in assay [2], in assay [3], in assay [4], in assay [5] and in [6] was over 100 µM each time. The TGI in assay [7], in [8], in assay [20], in assay [9], in assay [10] and in [11] was over 100 µM in each case. For the same compound, the TGI in assay [12] is over 100 µM; in assay [13] it was over 100 µM; in [14], over 100 µM; in assay [15], over 100 µM; in [17], 86.8 µM; in assay [18], over 100 µM. For the same compound, the TGI in assay [19] is over 100 µM.

With `O=C(Nc1ccccc1)N(CCN(Cc1ccccc1)C(=O)Nc1ccccc1)CCN(Nc1ccccc1)C(=O)Nc1ccccc1`, the TGI in assay [1], in assay [2], in assay [3], in assay [4], in [5] and in assay [6] was over 100 µM in each case. In addition, the TGI in [7], in assay [8], in assay [20], in assay [9], in [10] and in assay [11] was over 100 µM each time. Besides, the TGI in assay [12], in [14], in assay [15], in [16], in assay [17] and in assay [18] was over 100 µM throughout. In addition, the TGI in assay [19] was over 100 µM.

On to `O=c1[nH]c(Nc2ccc(Br)c(C(F)(F)F)c2)nc2nc[nH]c12`, for which the TGI in [1], in [2], in assay [3], in [4], in assay [6] and in assay [7] was over 100 µM in each case. Also, the TGI was over 100 µM in assay [8]; 63.5 µM in assay [20]; over 100 µM in assay [9]; 87 µM in assay [10]; over 100 µM in assay [11]; over 100 µM in assay [12]. Further, the TGI in assay [13] was over 100 µM; in assay [14], over 100 µM; in assay [15], 71.8 µM; in [16] it was over 100 µM; in assay [17] it was over 100 µM; in [18], over 100 µM. In assay [19], this compound registered a TGI of over 100 µM.

Turning to `Cc1ccc(S(=O)(=O)n2cc(C=O)c(-c3cn(S(=O)(=O)c4ccc(C)cc4)cc3-c3cn(S(=O)(=O)c4ccc(C)cc4)cc3C=O)c2)cc1`, the TGI in assay [1], in assay [2], in assay [3], in assay [4], in assay [5] and in assay [6] was over 100 µM in each case. The TGI in assay [7], in assay [8], in [20], in assay [9], in assay [10] and in assay [12] was over 100 µM each time. The TGI is 76.4 µM in assay [13]; over 100 µM in [15]; over 100 µM in [16]; over 100 µM in assay [17]; over 100 µM in assay [18]; 72 µM in assay [19].

Regarding `CCOP(=O)(OCC)Oc1c(OC)c2[nH]c(C(=O)OC)cc2c2c(C(=O)O)c[nH]c12`, the TGI in assay [1], in assay [2], in [3], in [4], in assay [5] and in assay [6] was over 100 µM in each case. The TGI in [7], in assay [8], in [20], in assay [9], in [10] and in assay [11] was over 100 µM throughout. For the same compound, the TGI in assay [13], in assay [14], in [15], in assay [16], in [17] and in assay [18] was over 100 µM each time. The TGI in assay [19] is over 100 µM.

`CCOC(=O)c1c(O)cn2c1[nH]c1cccc3cccc2c31`: the TGI in [1], in [2], in assay [3], in assay [4], in assay [5] and in assay [6] was over 100 µM in each case. Besides, the TGI in assay [7], in [8], in assay [20], in [9], in assay [11] and in assay [12] was over 100 µM in each case. Further, the TGI in assay [14], in assay [15], in assay [16], in assay [17], in assay [18] and in [19] was over 100 µM throughout.

For the compound `CN(C)Cc1cc(Cl)c(O)c(CN(C)C)c1`, the TGI in assay [1], in [2], in assay [3], in assay [4], in assay [5] and in [6] was over 100 µM each time. Besides, the TGI in assay [7], in [8], in [20], in assay [9], in assay [10] and in assay [11] was over 100 µM each time. Besides, the TGI in [12], in [14], in assay [15], in [16], in [17] and in [18] was over 100 µM each time. The compound further showed a TGI in assay [19] of over 100 µM.

`Cc1c(NC(=S)Nc2ccc([N+](=O)[O-])cc2)c(=O)n(-c2ccccc2)n1C`: the TGI in [1], in [2], in [3], in assay [4], in [5] and in assay [6] was over 100 µM each time. The TGI in [7], in [8], in assay [20], in assay [9], in assay [10] and in [12] was over 100 µM each time. The TGI in assay [13], in assay [14], in [15], in assay [17], in assay [18] and in [19] was over 100 µM throughout.

With `COC(=O)c1ccc(NCc2cc(OC)ccc2OC)cc1`, the TGI in [1] was 78.8 µM; in assay [3], over 100 µM; in [4] it was over 100 µM; in [5], over 100 µM; in assay [6], over 100 µM; in assay [7], over 100 µM. For the same compound, the TGI in [20], in assay [9], in assay [10], in assay [11], in assay [12] and in assay [13] was over 100 µM in each case. Moreover, the TGI in [14], in [15], in [17], in assay [18] and in assay [19] was over 100 µM in each case.

With `Cc1nc(OCc2ccccc2)c2ncn(CCO)c2n1`, the TGI in assay [1], in assay [3], in assay [4], in [6], in assay [7] and in assay [8] was over 100 µM throughout. Moreover, the TGI in assay [20], in assay [9], in assay [10], in [11], in [12] and in [13] was over 100 µM each time. Besides, the TGI in assay [14], in assay [15], in [16], in assay [17], in assay [18] and in [19] was over 100 µM each time.
